# Key:
# [1] = molecular target: GSPT1 (Homo sapiens (Human), UniProt P15170+Q96SW2); assay: Western blot, substrate protein expression in hPBMC: GSPT1; type: cell-based; conditions: hPBMC, compound 500 nM, 24 hours, Western blot
# In short: (§1)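 hPBMC, 1×10^6 cells/mL, 24 h compound exposure; RIPA lysis, BCA protein assay, SDS-PAGE, NC membrane immunoblot. Densitometry vs internal control → % protein remaining; degradation % = 100% − remaining; DC50 = conc. at 50% of DMSO band signal.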
# [2] = molecular target: IKZF1 (Homo sapiens (Human), UniProt Q13422+Q96SW2); assay: Western blot, substrate protein expression in hPBMC: IKZF1; type: cell-based; conditions: hPBMC, compound 500 nM, 24 hours, Western blot
# Chain of IKZF1 (Q13422 whole entry): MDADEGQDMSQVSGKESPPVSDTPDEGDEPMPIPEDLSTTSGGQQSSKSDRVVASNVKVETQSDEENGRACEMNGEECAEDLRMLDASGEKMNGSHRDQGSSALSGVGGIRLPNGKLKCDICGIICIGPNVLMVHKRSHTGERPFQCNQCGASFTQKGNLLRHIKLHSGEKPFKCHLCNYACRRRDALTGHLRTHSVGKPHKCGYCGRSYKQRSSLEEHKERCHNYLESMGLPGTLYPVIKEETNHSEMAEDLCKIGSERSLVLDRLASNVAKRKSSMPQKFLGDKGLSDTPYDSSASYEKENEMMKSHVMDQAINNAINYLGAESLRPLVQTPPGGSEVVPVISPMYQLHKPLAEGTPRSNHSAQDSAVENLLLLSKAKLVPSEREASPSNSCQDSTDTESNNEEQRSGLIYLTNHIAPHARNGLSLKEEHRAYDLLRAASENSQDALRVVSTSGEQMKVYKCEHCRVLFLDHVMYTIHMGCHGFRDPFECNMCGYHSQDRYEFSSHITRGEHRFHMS
# Chain of IKZF1 (Q96SW2 whole entry): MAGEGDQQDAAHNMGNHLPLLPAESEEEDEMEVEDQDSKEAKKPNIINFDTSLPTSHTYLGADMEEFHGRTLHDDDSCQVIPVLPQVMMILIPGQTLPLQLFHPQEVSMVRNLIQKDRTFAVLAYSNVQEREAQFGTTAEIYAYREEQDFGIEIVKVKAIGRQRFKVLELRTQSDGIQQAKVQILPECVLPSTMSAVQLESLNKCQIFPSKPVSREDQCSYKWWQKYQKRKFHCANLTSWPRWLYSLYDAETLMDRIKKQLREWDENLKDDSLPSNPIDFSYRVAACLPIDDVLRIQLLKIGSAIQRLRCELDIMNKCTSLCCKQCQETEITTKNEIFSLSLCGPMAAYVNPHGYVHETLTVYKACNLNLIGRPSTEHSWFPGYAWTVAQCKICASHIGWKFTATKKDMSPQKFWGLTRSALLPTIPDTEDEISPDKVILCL
# Chain of IKZF1 (Q16531 whole entry partner): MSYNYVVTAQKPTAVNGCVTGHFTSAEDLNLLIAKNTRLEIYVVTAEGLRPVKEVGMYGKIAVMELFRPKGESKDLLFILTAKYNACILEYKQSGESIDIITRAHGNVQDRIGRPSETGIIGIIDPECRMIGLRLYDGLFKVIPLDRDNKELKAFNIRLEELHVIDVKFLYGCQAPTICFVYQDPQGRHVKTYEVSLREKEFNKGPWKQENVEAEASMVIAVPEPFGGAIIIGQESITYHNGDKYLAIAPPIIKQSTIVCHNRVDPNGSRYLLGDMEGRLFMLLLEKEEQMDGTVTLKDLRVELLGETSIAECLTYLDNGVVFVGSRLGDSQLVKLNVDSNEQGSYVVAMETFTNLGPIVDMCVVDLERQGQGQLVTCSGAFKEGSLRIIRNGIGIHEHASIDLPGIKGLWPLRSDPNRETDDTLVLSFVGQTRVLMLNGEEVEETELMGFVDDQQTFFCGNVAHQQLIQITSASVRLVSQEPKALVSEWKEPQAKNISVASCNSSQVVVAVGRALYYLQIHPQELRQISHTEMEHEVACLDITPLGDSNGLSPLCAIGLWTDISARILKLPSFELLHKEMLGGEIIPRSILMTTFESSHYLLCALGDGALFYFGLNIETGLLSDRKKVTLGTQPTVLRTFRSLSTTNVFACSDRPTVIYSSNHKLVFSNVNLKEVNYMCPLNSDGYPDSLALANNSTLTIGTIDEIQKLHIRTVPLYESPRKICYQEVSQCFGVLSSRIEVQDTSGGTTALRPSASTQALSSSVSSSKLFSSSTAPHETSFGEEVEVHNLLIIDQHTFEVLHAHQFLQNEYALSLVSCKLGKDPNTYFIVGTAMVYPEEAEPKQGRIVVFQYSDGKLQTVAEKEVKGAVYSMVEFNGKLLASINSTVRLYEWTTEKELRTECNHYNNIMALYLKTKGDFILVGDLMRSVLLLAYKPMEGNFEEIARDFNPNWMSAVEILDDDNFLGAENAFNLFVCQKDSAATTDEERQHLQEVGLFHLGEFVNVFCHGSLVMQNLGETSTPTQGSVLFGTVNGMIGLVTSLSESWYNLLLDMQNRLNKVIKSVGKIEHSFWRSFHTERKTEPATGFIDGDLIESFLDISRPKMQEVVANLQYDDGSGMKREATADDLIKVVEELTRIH
# In short: as §1
# [3] = molecular target: IKZF3 (Homo sapiens (Human), UniProt Q96SW2+Q9UKT9); assay: Western blot, substrate protein expression in hPBMC: IKZF3; type: cell-based; conditions: hPBMC, compound 500 nM, 24 hours, Western blot
# Chain of IKZF3 (Q9UKT9 whole entry): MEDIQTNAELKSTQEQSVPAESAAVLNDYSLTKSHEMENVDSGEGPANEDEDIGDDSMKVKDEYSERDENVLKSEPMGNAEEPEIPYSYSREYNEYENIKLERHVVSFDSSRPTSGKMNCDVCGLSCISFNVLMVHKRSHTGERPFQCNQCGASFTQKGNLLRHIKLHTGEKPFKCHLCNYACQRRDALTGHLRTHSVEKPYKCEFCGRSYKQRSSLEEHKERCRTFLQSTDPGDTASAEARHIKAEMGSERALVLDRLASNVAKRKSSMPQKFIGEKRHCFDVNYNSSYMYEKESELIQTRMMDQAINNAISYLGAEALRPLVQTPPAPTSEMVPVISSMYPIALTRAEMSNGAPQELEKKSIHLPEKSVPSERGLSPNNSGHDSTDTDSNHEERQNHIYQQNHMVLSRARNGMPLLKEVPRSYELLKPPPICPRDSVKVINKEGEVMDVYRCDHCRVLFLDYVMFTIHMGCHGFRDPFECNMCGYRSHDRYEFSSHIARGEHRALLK
# Chain of IKZF3 (Q96SW2 whole entry): as the sequence (Q96SW2 whole entry) above
# Chain of IKZF3 (Q16531 whole entry partner): as the sequence (Q16531 whole entry partner) above
# In short: as §1
# [4] = tested on: CAL-62 (human thyroid carcinoma cells); assay: Tumor cell proliferation inhibition, CCK-8; type: cell-based; conditions: CAL-62 cells, CCK-8, read-out: inhibitory activity (IC50, nM) CAL-62
# In short: (§2)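 Growth inhibition is measured by CCK-8 cell viability; IC50 is calculated from the dose–response curve. Compounds are added 24 h after seeding, starting at 10 μM and diluted 5-fold across 10 concentrations.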
# [5] = tested on: H146 cells (human small cell lung carcinoma cells); assay: Tumor cell proliferation inhibition, CCK-8; type: cell-based; conditions: NCI-H146, H146 cells, CCK-8, read-out: inhibitory activity (IC50, nM) H146
# In short: as §2
# [6] = tested on: Jurkat cells (human T-cell leukemia cells); assay: Tumor cell proliferation inhibition, CCK-8; type: cell-based; conditions: Jurkat cells, CCK-8, read-out: inhibitory activity (IC50, nM) Jurkat
# In short: as §2
# [7] = tested on: TMD8 cells (human diffuse large B-cell lymphoma cells); assay: Tumor cell proliferation inhibition, CCK-8; type: cell-based; conditions: TMD8 cells, CCK-8, read-out: inhibitory activity (IC50, nM) TMD8
# In short: as §2
# [8] = tested on: MM.1R cells (dexamethasone-resistant human multiple myeloma cells); assay: Tumor cell proliferation inhibition, CCK-8; type: cell-based; conditions: MM.1R cells, CCK-8, read-out: inhibitory activity (IC50, nM) MM.1R
# In short: as §2
# [9] = tested on: MDA-MB-231 cells (human breast adenocarcinoma cells); assay: Tumor cell proliferation inhibition, CCK-8; type: cell-based; conditions: MDA-MB-231 cells, CCK-8, read-out: inhibitory activity (IC50, nM) MDA-MB-231
# In short: as §2
# [10] = tested on: MM.1S cells (human multiple myeloma cells); assay: Tumor cell proliferation inhibition, CCK-8; type: cell-based; conditions: MM1.S, MM.1S cells, CCK-8, read-out: inhibitory activity (IC50, nM) MM.1S
# In short: as §2
# [11] = tested on: Kasumi-1 (human acute myeloid leukemia cells); assay: Tumor cell proliferation inhibition, CCK-8; type: cell-based; conditions: Kasumi-1 cells, CCK-8, read-out: inhibitory activity (IC50, nM) Kasumi-1
# In short: as §2
# [12] = tested on: CCRF-CEM (human acute lymphoblastic leukemia T-cells); assay: Tumor cell proliferation inhibition, CCK-8; type: cell-based; conditions: CCRF-CEM cells, CCK-8, read-out: inhibitory activity (IC50, nM) CCRF-CEM
# In short: as §2
# [13] = molecular target: human Cereblon WT GST-tagged protein (Homo sapiens (Human), UniProt Q96SW2); assay: CRBN-binding affinity, HTRF (CEREBLON BINDING kit, CISBIO); conditions: HTRF inhibitory activity
# Chain of human Cereblon WT GST-tagged protein (Q96SW2 whole entry): as the sequence (Q96SW2 whole entry) above
# In short: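 HTRF competition format: test compound displaces Thalidomide-Red from GST-tagged human Cereblon WT, detected with a Eu-labelled anti-GST antibody. Percent CRBN binding inhibition was derived from the 620 nm signal, normalized to solvent-control and protein-free blank wells.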
# Chain of GSPT1 (P15170 whole entry): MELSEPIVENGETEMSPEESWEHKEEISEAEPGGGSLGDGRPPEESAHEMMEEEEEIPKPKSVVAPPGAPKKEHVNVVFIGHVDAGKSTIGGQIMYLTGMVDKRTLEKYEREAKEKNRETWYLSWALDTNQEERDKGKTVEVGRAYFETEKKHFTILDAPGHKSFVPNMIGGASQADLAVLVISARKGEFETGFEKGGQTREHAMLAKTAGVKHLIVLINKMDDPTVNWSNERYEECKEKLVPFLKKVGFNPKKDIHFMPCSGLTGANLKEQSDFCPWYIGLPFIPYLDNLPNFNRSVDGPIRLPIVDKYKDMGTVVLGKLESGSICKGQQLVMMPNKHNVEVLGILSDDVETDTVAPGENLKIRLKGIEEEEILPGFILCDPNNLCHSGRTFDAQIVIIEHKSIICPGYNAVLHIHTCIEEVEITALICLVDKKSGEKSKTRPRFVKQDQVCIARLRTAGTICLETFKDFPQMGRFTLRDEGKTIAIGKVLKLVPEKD
# Chain of GSPT1 (Q96SW2 whole entry): as the sequence (Q96SW2 whole entry) above
# Chain of GSPT1 (Q16531 whole entry partner): as the sequence (Q16531 whole entry partner) above
IC50 [4] [nM],IC50 [5] [nM],IC50 [6] [nM],IC50 [7] [nM],IC50 [8] [nM],IC50 [9] [nM],IC50 [10] [nM],IC50 [11] [nM],IC50 [12] [nM],IC50 [13] [nM],SMILES,substrate protein remaining % GSPT1 [1],substrate protein remaining % IKZF1 [2],substrate protein remaining % IKZF3 [3]
< 1,10 to 50,1 to 10,10 to 50,< 1,1 to 10,1 to 10,< 1,< 1,500 to 1000,"O=C1CCC(N2Cc3cc(CN4CCN(C(c5ccccc5)c5ccccc5)CC4)ccc3C2=O)C(=O)N1 (stereo not shown) [GT-03245, 3-(5-((4-benzhydrylpiperazin-1-yl)methyl)-1-oxoisoindolin-2-yl)piperidine-2,6-dione]",A (A represents 0% ≤ substrate protein remaining % ≤ 50%),A (A represents 0% ≤ substrate protein remaining % ≤ 50%),A (A represents 0% ≤ substrate protein remaining % ≤ 50%)
1 to 10,50 to 100,10 to 50,50 to 100,1 to 10,10 to 50,1 to 10,10 to 50,1 to 10,500 to 1000,"O=C1CCC(N2Cc3cc(CN4CCN(C(c5ccc(F)cc5)c5ccc(F)cc5)CC4)ccc3C2=O)C(=O)N1 (stereo not shown) [GT-03386, 3-(5-((4-(bis(4-fluorophenyl)methyl)piperazin-1-yl)methyl)-1-oxoisoindolin-2-yl)piperidine-2,6-dione]",A (A represents 0% ≤ substrate protein remaining % ≤ 50%),A (A represents 0% ≤ substrate protein remaining % ≤ 50%),A (A represents 0% ≤ substrate protein remaining % ≤ 50%)
1 to 10,10 to 50,1 to 10,10 to 50,1 to 10,1 to 10,1 to 10,1 to 10,< 1,< 500,"O=C1CCC(N2Cc3c(ccc(CN4CCN(C(c5ccccc5)c5ccccc5)CC4)c3F)C2=O)C(=O)N1 (stereo not shown) [GT-03466, 3-(5-((4-benzhydrylpiperazin-1-yl)methyl)-4-fluoro-1-oxoisoindolin-2-yl)piperidine-2,6-dione]",A (A represents 0% ≤ substrate protein remaining % ≤ 50%),A (A represents 0% ≤ substrate protein remaining % ≤ 50%),A (A represents 0% ≤ substrate protein remaining % ≤ 50%)
1 to 10,10 to 50,10 to 50,10 to 50,10 to 50,10 to 50,1 to 10,1 to 10,1 to 10,< 500,"O=C1CCC(N2Cc3c(ccc(CN4CCN(C(c5ccc(F)cc5)c5ccc(F)cc5)CC4)c3F)C2=O)C(=O)N1 (stereo not shown) [GT-03564, 3-(5-((4-(bis(4-fluorophenyl)methyl)piperazin-1-yl)methyl)-4-fluoro-1-oxoisoindolin-2-yl)piperidine-2,6-dione]",A (A represents 0% ≤ substrate protein remaining % ≤ 50%),A (A represents 0% ≤ substrate protein remaining % ≤ 50%),A (A represents 0% ≤ substrate protein remaining % ≤ 50%)
1 to 10,10 to 50,1 to 10,100 to 500,1 to 10,10 to 50,1 to 10,1 to 10,< 1,500 to 1000,"O=C1CCC(N2Cc3cc(CN4CCN(C(c5ccc(F)cc5)c5ccc(F)cc5)CC4)c(F)cc3C2=O)C(=O)N1 (stereo not shown) [GT-03698, 3-(5-((4-(bis(4-fluorophenyl)methyl)piperazin-1-yl)methyl)-6-fluoro-1-oxoisoindolin-2-yl)piperidine-2,6-dione]",A (A represents 0% ≤ substrate protein remaining % ≤ 50%),A (A represents 0% ≤ substrate protein remaining % ≤ 50%),A (A represents 0% ≤ substrate protein remaining % ≤ 50%)
1 to 10,10 to 50,1 to 10,10 to 50,1 to 10,1 to 10,1 to 10,1 to 10,1 to 10,500 to 1000,"O=C1CCC(N2Cc3cc(CN4CCN(C(c5ccccc5)c5ccccc5)CC4)c(F)cc3C2=O)C(=O)N1 (stereo not shown) [GT-03700, 3-(5-((4-benzhydrylpiperazin-1-yl)methyl)-6-fluoro-1-oxoisoindolin-2-yl)piperidine-2,6-dione]",A (A represents 0% ≤ substrate protein remaining % ≤ 50%),A (A represents 0% ≤ substrate protein remaining % ≤ 50%),B (B represents substrate protein remaining % > 50%)
1 to 10,50 to 100,10 to 50,100 to 500,1 to 10,10 to 50,1 to 10,10 to 50,1 to 10,500 to 1000,"O=C1CCC(N2Cc3cc(CN4CCN(C(c5cccc(F)c5)c5cccc(F)c5)CC4)c(F)cc3C2=O)C(=O)N1 (stereo not shown) [GT-03701, 3-(5-((4-(bis(3-fluorophenyl)methyl)piperazin-1-yl)methyl)-6-fluoro-1-oxoisoindolin-2-yl)piperidine-2,6-dione]",A (A represents 0% ≤ substrate protein remaining % ≤ 50%),A (A represents 0% ≤ substrate protein remaining % ≤ 50%),A (A represents 0% ≤ substrate protein remaining % ≤ 50%)
< 1,10 to 50,1 to 10,10 to 50,1 to 10,1 to 10,< 1,1 to 10,< 1,< 500,"O=C1CCC(N2Cc3cc(CN4CCN(C(c5cccc(F)c5)c5cccc(F)c5)CC4)ccc3C2=O)C(=O)N1 (stereo not shown) [GT-03702, 3-(5-((4-(bis(3-fluorophenyl)methyl)piperazin-1-yl)methyl)-1-oxoisoindolin-2-yl)piperidine-2,6-dione]",A (A represents 0% ≤ substrate protein remaining % ≤ 50%),A (A represents 0% ≤ substrate protein remaining % ≤ 50%),A (A represents 0% ≤ substrate protein remaining % ≤ 50%)
1 to 10,10 to 50,1 to 10,10 to 50,1 to 10,1 to 10,1 to 10,1 to 10,< 1,< 500,"O=C1CCC(N2Cc3c(ccc(CN4CCN(C(c5cccc(F)c5)c5cccc(F)c5)CC4)c3F)C2=O)C(=O)N1 (stereo not shown) [GT-03703, 3-(5-((4-(bis(3-fluorophenyl)methyl)piperazin-1-yl)methyl)-4-fluoro-1-oxoisoindolin-2-yl)piperidine-2,6-dione]",A (A represents 0% ≤ substrate protein remaining % ≤ 50%),A (A represents 0% ≤ substrate protein remaining % ≤ 50%),A (A represents 0% ≤ substrate protein remaining % ≤ 50%)
1 to 10,50 to 100,1 to 10,100 to 500,1 to 10,10 to 50,1 to 10,10 to 50,1 to 10,500 to 1000,"O=C1CCC(N2Cc3c(ccc(CN4CCN(C(c5ccccc5)c5ccccn5)CC4)c3F)C2=O)C(=O)N1 (stereo not shown) [GT-03832, 3-(4-fluoro-1-oxo-5-((4-(phenyl(pyridin-2-yl)methyl)piperazin-1-yl)methyl)isoindolin-2-yl)piperidine-2,6-dione]",A (A represents 0% ≤ substrate protein remaining % ≤ 50%),B (B represents substrate protein remaining % > 50%),A (A represents 0% ≤ substrate protein remaining % ≤ 50%)
